Measurements reported in patent US4642341A, “Carbapenem antibiotics” (priority 1985, dated 1987).
Values after ≈ are worked out from the molar mass of the structure shown. Like-named read-outs stand apart in the source and are kept apart here.

What was measured:
[1] = test system: S. aureus A15097 (Meth-res.); test: Minimum Inhibitory Concentration, tube dilution; type: cell-based; conditions: Staphylococcus aureus, table 6
[2] = test system: E. cloacae A-9656; test: Minimum Inhibitory Concentration, tube dilution; type: cell-based; conditions: Enterobacter cloacae, A9656; overnight 37° C.; table 6
[3] = Half-life in phosphate buffer pH 7.4; type: physicochemical; conditions: phosphate buffer; for half-life at 100 µM: pH 7.4, τ1/2 (half-life)
Method: To a solution of p-nitrobenzyl 3-[2-(1-pyridinium)ethylthio)]-6α[1-(R)-hydroxyethyl]-7-oxo-1-azabicyclo(3.2.0)hept-2-ene-carboxylate diphenylphosphate (0.16 g, 0.22 mmol) in wet tetrahydrofuran (10mL) was added ether (10mL), potassium phosphate monobasic-sodium hydroxide buffer pH 7.4 (16 mL, 0.05 M) and 10% palladium on charcoal (0.16 g). The resulting mixture was hydrogenated under 40 psi for 1 h at 25° C. The two phases were separated and the organic phase was extracted with water (2×3 mL). The aqeuous solutions were combined, washed with ether (2×10 ml) and poured on top of a column (1.5×6.2 cm) pf μ-bondapak C-18 after the traces of organic solvents have been removed under vacuum. Elution of the column with water gave after lyophylization of the appropriate fractions a yellowish powder 0.062 g (84%), ir (KBr) .nu.max : 3700-3000 (OH), 1755 (C--O of β-lactam), 1630 (pyridinium), 1590 cm^-1 (carboxylate), ^1 Hmr (D2 O): 1.22 (3H, d, J=6.4 Hz, CH3 CHOH), 2.92 (d, J=9.1 Hz, H-4), 2.97 (d, J=9.1 Hz, H-4), 3.20 (dd, J=2.5 Hz, J=6.1 Hz, H-6), 3.44 (t, J=6.0 Hz, CH2 S), 3.93 (dd, J=9.1 Hz, J=2.5 Hz, H-5), 4.82 (t, J=6.0 Hz, CH2 N^+), 8.04 (m, Hm of pyridinium), 8.5 (m, Hp of pyridinium), 8.82 (dd, J=3.2. Hz, J=1.1 Hz, Ho of pyridinium), uv (H2 O) λ max : 259 (ε5800), 296 (ε7030) mμ, .tau.1/2 =13.5 h (measured at a concentration of 10^-4 M in phosphate buffer pH 7.4 at 36.8° C.).

[4] = test system: P. rettgeri A22424; test: Minimum Inhibitory Concentration, tube dilution; type: cell-based; conditions: Providencia rettgeri, overnight 37° C.
[5] = test system: E. coli A15119; test: Minimum Inhibitory Concentration, tube dilution; type: cell-based; conditions: Escherichia coli, A15119, overnight 37° C.; table 6
[6] = test system: S. marcescens A20019; test: Minimum Inhibitory Concentration, tube dilution; type: cell-based; conditions: Serratia marcescens, A20019, overnight 37° C.; table 6
[7] = test system: S. aureus A-9606 (Pen-res.); test: Minimum Inhibitory Concentration, tube dilution; type: cell-based; conditions: Staphylococcus aureus, Pen-res; table 6
[8] = test system: B. fragilis A22696; test: Minimum Inhibitory Concentration, tube dilution; type: cell-based; conditions: Bacteroides fragilis
[9] = test system: P. mirabilis A9900; test: Protective effect, intramuscular treatment of infected mice (table 7); type: in vivo; conditions: Proteus mirabilis, A9900, im; i.m. 1 and 3.5 hours post-infection; ~1×10^7 organisms i.p.; read-out: PD50 /treatment
Method: (§1) Drugs were administered i.m. 0 to 2 hours post-infection (A9606) or 1 and 3.5 hours post-infection for the others.

[10] = test system: S. aureus A9606; test: as above; type: in vivo; conditions: Staphylococcus aureus, A9606, im; i.m. 0 to 2 hours post-infection; ~1×10^9 organisms i.p.; read-out: PD50 /treatment
Method: as §1

[11] = test system: P. aeruginosa A20481; test: as above; type: in vivo; conditions: Pseudomonas aeruginosa, A20481, im; i.m. 1 and 3.5 hours post-infection; ~1×10^5 organisms i.p.; read-out: PD50 /treatment
Method: as §1

[12] = test system: S. pyogenes A-9604; test: Minimum Inhibitory Concentration, tube dilution; type: cell-based; conditions: Streptococcus pyogenes, A9604, overnight 37° C.; table 6
[13] = test system: S. aureus A-9537; test: Minimum Inhibitory Concentration, tube dilution; type: cell-based; conditions: Staphylococcus aureus, table 6, read-out: MIC
[14] = test system: S. pneumoniae A-9585; test: Minimum Inhibitory Concentration, tube dilution; type: cell-based; conditions: Streptococcus pneumoniae, A9585, overnight 37° C.; table 6
[15] = test system: B. fragilis A22862; test: Minimum Inhibitory Concentration, tube dilution; type: cell-based; conditions: Bacteroides fragilis, overnight 37° C., table 6
[16] = test system: P. aeruginosa A9843A; test: animal or person; type: in vivo, mice; conditions: Pseudomonas aeruginosa, in Mus musculus, im, 3.5 h, read-out: PD50 /treatment
Method: as §1

[17] = test system: P. vulgaris A21559; test: Minimum Inhibitory Concentration, tube dilution; type: cell-based; conditions: Proteus vulgaris, A21559, overnight 37° C.; table 6
[18] = test system: P. aeruginosa A-9843A; test: Minimum Inhibitory Concentration, tube dilution; type: cell-based; conditions: Pseudomonas aeruginosa, A9843A, overnight 37° C.; table 6; read-out: MIC
[19] = test system: S. faecalis A20688; test: Minimum Inhibitory Concentration, tube dilution; type: cell-based; conditions: Enterococcus faecalis
[20] = test system: E. coli A20341-1; test: Minimum Inhibitory Concentration, tube dilution; type: cell-based; conditions: Escherichia coli, A203411, overnight 37° C.; table 6
[21] = test system: H. influenzae A-9833; test: Minimum Inhibitory Concentration, tube dilution; type: cell-based; conditions: Haemophilus influenzae, A9833; overnight 37° C.; table 6; read-out: MIC
[22] = test system: H. influenzae A21518; test: Minimum Inhibitory Concentration, tube dilution; type: cell-based; conditions: Haemophilus influenzae, overnight 37° C., table 6
[23] = Pharmacokinetic parameters in the mouse after intramuscular dose; type: in vivo, mice; conditions: im, 20 mg/kg
Excerpt: Also shown is the urinary recovery in the mice.
Compounds were solubilized in 0.1 M phosphate buffer pH 7.

[24] = test system: P. aeruginosa A21213; test: Minimum Inhibitory Concentration, tube dilution; type: cell-based; conditions: Pseudomonas aeruginosa, A21213, overnight 37° C.; table 6; read-out: MIC
[25] = test system: M. morganii A15153; test: Minimum Inhibitory Concentration, tube dilution; type: cell-based; conditions: Morganella morganii, A15153, overnight 37° C.; table 6
[26] = test system: P. mirabilis A-9900; test: Minimum Inhibitory Concentration, tube dilution; type: cell-based; conditions: Proteus mirabilis, A9900, overnight 37° C.; table 6
[27] = test system: E. cloacae A9659; test: Minimum Inhibitory Concentration, tube dilution; type: cell-based; conditions: Enterobacter cloacae, A9659, overnight 37° C., table 6
[28] = test system: P. aeruginosa A9843A; test: animal or person; type: in vivo, mice; conditions: Pseudomonas aeruginosa, in Mus musculus, im, read-out: PD50 /treatment
Excerpt: The PD50 (dose in mg/kg required to give protection to 50% of the infected mice) is indicated.

[29] = test system: K. pneumoniae A20468; test: Minimum Inhibitory Concentration, tube dilution; type: cell-based; conditions: Klebsiella pneumoniae, A20468, overnight 37° C.; table 6
[30] = test system: K. pneumoniae A-9664; test: Minimum Inhibitory Concentration, tube dilution; type: cell-based; conditions: Klebsiella pneumoniae, A9664, overnight 37° C.; table 6
[31] = overnight 37° C., table 6, read-out: MIC
[32] = A20688, overnight 37° C., table 6, read-out: MIC

Row | SMILES | MIC [1] [µg/mL] | MIC [2] [µg/mL] | half-life at 100 µM [3] [h] | MIC ([4]; table 6, read-out: MIC) [µg/mL] | MIC [5] [µg/mL] | MIC [6] [µg/mL] | MIC [7] [µg/mL] | MIC [8, 31] [µg/mL] | ED50 [9] [mg/kg] | ED50 [10] [mg/kg] | MIC [12] [µg/mL] | MIC ([13]; A9537, 50% serum) [µg/mL] | MIC ([13]; A9537, overnight 37° C.) [µg/mL] | MIC [14] [µg/mL] | MIC [15] [µg/mL] | MIC [17] [µg/mL] | MIC [18] [µg/mL] | MIC [20] [µg/mL] | MIC [24] [µg/mL] | MIC [26] [µg/mL] | other results
1 | CC(C[n+]1ccccc1)SC1=C(C(=O)[O-])N2C(=O)[C@H]([C@@H](C)O)[C@H]2C1 (single isomer, unassigned) [Ex. 15 (cmp. "B")] | 0.03 (≈ 0.0861 µM) | 0.06 (≈ 0.172 µM) | 12.6 | 0.06 (≈ 0.172 µM) | – | – | – | – | – | – | – | – | – | – | – | – | – | – | – | – | –
2 | C[C@@H](O)[C@H]1C(=O)N2C(C(=O)[O-])=C(SC3CCCCC3[n+]3ccccc3)C[C@H]12 (single isomer, unassigned) [Ex. 16 (cmp. "A"), (5R,6S) 3-[2-[(R or S)-(1-pyridinium)]-1-(R or S)-cyclohexylthio]-6-[1-(R)-hydroxyethyl]-7-oxo-1-azabicyclo(3.2.0)hept-2-ene-2-carboxylate] | – | 0.5 (≈ 1.29 µM) | – | – | 0.06 (≈ 0.154 µM) | 0.13 (≈ 0.335 µM) | – | – | – | – | – | – | – | – | – | – | – | – | – | – | –
3 | C[C@@H](O)[C@H]1C(=O)N2C(C(=O)[O-])=C(SCC[n+]3cccc(CO)c3)C[C@H]12 [Example 5, (5R,6S)-3-[[2-(3-hydroxymethylpyridino)ethyl]thio]-6-[(R)-1-hydroxyethyl]-7-oxo-1-azabicyclo[3.2.0]hept-2-ene-2-carboxylate] | > 63 | – | – | – | 0.06 (≈ 0.165 µM) | – | 0.03 (≈ 0.0823 µM) | 0.5 (≈ 1.37 µM) | 22 | 0.5 | 0.03 (≈ 0.0823 µM) | 0.06 (≈ 0.165 µM) | 0.03 (≈ 0.0823 µM) | 0.03 (≈ 0.0823 µM) | 0.06 (≈ 0.165 µM) | 0.06 (≈ 0.165 µM) | 2 (≈ 5.49 µM) | 0.06 (≈ 0.165 µM) | – | – | ED50 [11]: 0.8 mg/kg; ED50 [16]: 0.9 mg/kg; MIC [19, 32]: 0.5 µg/mL (≈ 1.37 µM); half-life ([3]; pH 7.4, t1/2 (half-life)): 14 h; MIC [21]: > 32 µg/mL; MIC [22]: > 32 µg/mL
4 | Cc1cccc[n+]1CCSC1=C(C(=O)[O-])N2C(=O)[C@H]([C@@H](C)O)[C@H]2C1 [Example 7, 3-[2-(1-(2-methylpyridinium))ethylthio]-6α-[1-(R)-hydroxyethyl]-7-oxo-1-azabicyclo(3.2.0)hept-2-ene-carboxylate] | > 63 | – | 15 | – | 0.03 (≈ 0.0861 µM) | 0.03 (≈ 0.0861 µM) | 0.03 (≈ 0.0861 µM) | – | ~22 | 0.6 | 0.03 (≈ 0.0861 µM) | 0.03 (≈ 0.0861 µM) | 0.03 (≈ 0.0861 µM) | 0.03 (≈ 0.0861 µM) | 0.06 (≈ 0.172 µM) | 0.03 (≈ 0.0861 µM) | 4 (≈ 11.5 µM) | 0.03 (≈ 0.0861 µM) | 1 (≈ 2.87 µM) | 0.03 (≈ 0.0861 µM) | MIC [8]: 0.5 µg/mL (≈ 1.44 µM); ED50 [11]: 1.4 mg/kg; ED50 [16]: 0.9 mg/kg; AUC ([23]; blood): 7000 ng·h/mL; Cmax ([23]; blood): 15000 ng/mL; half-life ([23]; blood, read-out: T1/2 (blood)): 0.183 h; dose excreted ([23]; urine, read-out: Urine Recovery): 49 ± 9%; MIC ([19]; A20688): 0.5 µg/mL (≈ 1.44 µM); MIC [25]: 0.03 µg/mL (≈ 0.0861 µM); MIC [21]: > 32 µg/mL; MIC ([27]; read-out: MIC): 0.06 µg/mL (≈ 0.172 µM); MIC [22]: > 32 µg/mL
5 | CSc1cc[n+](CCSC2=C(C(=O)[O-])N3C(=O)[C@H]([C@@H](C)O)[C@H]3C2)cc1 [Example 9, (5R) 3-[2-(4-methylthiopyridinio)ethylthio]-(6S)-[(1R)-hydroxyethyl]-7-oxo-1-azabicyclo[3.2.0]hept-2-ene-2-carboxylate] | – | – | – | – | 0.03 (≈ 0.0788 µM) | 0.06 (≈ 0.158 µM) | 0.008 (≈ 0.021 µM) | – | – | – | 0.001 (≈ 0.00263 µM) | 0.016 (≈ 0.0421 µM) | 0.008 (≈ 0.021 µM) | 0.002 (≈ 0.00526 µM) | 0.06 (≈ 0.158 µM) | 0.016 (≈ 0.0421 µM) | 4 (≈ 10.5 µM) | 0.03 (≈ 0.0788 µM) | 2 (≈ 5.26 µM) | 0.06 (≈ 0.158 µM) | ED50 [28]: 3.1 mg/kg; MIC ([19]; A20688, overnight 37° C., table 6): 0.25 µg/mL (≈ 0.657 µM); MIC ([4]; table 6): 0.25 µg/mL (≈ 0.657 µM); MIC [29]: 0.25 µg/mL (≈ 0.657 µM); MIC [27]: 0.25 µg/mL (≈ 0.657 µM)
6 | Cc1cccc(C)[n+]1CCSC1=C(C(=O)[O-])N2C(=O)[C@H]([C@@H](C)O)[C@H]2C1 [Example 12] | – | 0.5 (≈ 1.38 µM) | – | 0.5 (≈ 1.38 µM) | – | 0.06 (≈ 0.166 µM) | 0.016 (≈ 0.0441 µM) | 0.25 (≈ 0.69 µM) | – | – | 0.002 (≈ 0.00552 µM) | 0.03 (≈ 0.0828 µM) | 0.008 (≈ 0.0221 µM) | 0.002 (≈ 0.00552 µM) | 0.06 (≈ 0.166 µM) | 0.03 (≈ 0.0828 µM) | > 32 | 0.016 (≈ 0.0441 µM) | 16 (≈ 44.1 µM) | 0.06 (≈ 0.166 µM) | ED50 [28]: > 25 mg/kg; MIC [19, 32]: 0.25 µg/mL (≈ 0.69 µM); MIC [25]: 0.06 µg/mL (≈ 0.166 µM); MIC [30]: 0.06 µg/mL (≈ 0.166 µM); MIC ([27]; read-out: MIC): 0.25 µg/mL (≈ 0.69 µM)
